One assay has as its system Hela Cells. Put plainly: Growth of Hela cells in culture (cell count after 72 hours). In kind it is cell-based. On the procedure:
Hela cells (1 × 10⁵/35 mm dish) were plated and incubated at 37°C in a CO₂ (5%) incubator. Media containing different dilutions of MDL 27,069 were added after overnight incubation. At the end of 72 hours, the cells were collected by trypsinization and counted using a coulter counter. *All cells were killed.

Another assay concerns L1210 mouse leukemia. Put plainly: Antitumor activity against L1210 mouse leukemia (survival time). In kind it is in vivo. As to conditions: for CURES: cured = surviving more than 30 days. Here is the method:
1 × 10⁵ L1210 leukemia cells per animal were injected i.p. on day 0. Treatment with the drug was started on day 1. The compound was dissolved in sterile water and administered i.p. at the doses indicated from day 1 to day 9 once daily. Therapeutic effect of the compound was determined by determining the survival time of the treated group in comparison with control group as follows: [formula] *Animals surviving for more than 30 days are considered cured.

Where [1] appears, read: 0,01 mg/kg i.p. once daily day 1 to day 9.
Setting [2] is: 0.25 mg/kg i.p. once daily day 1 to day 9.
Setting [3] is: 0.5 mg/kg i.p. once daily day 1 to day 9.
Setting [4] is: 1.0 mg/kg i.p. once daily day 1 to day 9.

Marks after values point to notes of the source that are not given here.

Consider `Nc1ccn([C@@H]2O[C@H](CO)[C@@H](O)C2(F)F)c(=O)n1` [MDL 27,069, 2'-desoxy-2',2'-difluorocytidine], for which the “Cell Number” value was 2.0 X10^5 in the assay on Hela Cells (0.00062 μg/ml); 1.17 X10^5 with Hela Cells (0.00125 μg/ml); 0.51 X10^5 with Hela Cells (0.0025 μg/ml); 0.36 X10^5 in the assay with Hela Cells (0.005 μg/ml); 0* X10^5 in the assay with Hela Cells (0.01 μg/ml, *All cells were killed). For the same molecule, at 0.00062 µg/mL the inhibition with Hela Cells (Homo sapiens, 0.00062 μg/ml) was 48%. Also, the inhibition (in general, the change of the read-out against control, counted positive when it falls) at 0.00125 µg/mL with Hela Cells (Homo sapiens, 0.00125 μg/ml) is 70%. For the same molecule, the inhibition at 0.0025 µg/mL with Hela Cells (Homo sapiens, 0.0025 μg/ml) worked out at 87%. The molecule further yielded an inhibition at 0.005 µg/mL in the assay on Hela Cells (Homo sapiens, 0.005 μg/ml) of 91%. Further, the inhibition at 0.01 µg/mL in the assay on Hela Cells (Homo sapiens, 0.01 μg/ml) turned out to be 100%. For the same molecule, the “MEAN SURVIVAL TIME” value turned out to be 13.25 days with L1210 mouse leukemia (setting [1]), 13.40 days with L1210 mouse leukemia (setting [2]) and 20.0 days with L1210 mouse leukemia (setting [4]). In addition, the “o/o T/C” value in the assay on L1210 mouse leukemia (setting [1]) was determined as 189 o/o; in the assay on L1210 mouse leukemia (setting [2]), 191 o/o; in the assay with L1210 mouse leukemia (setting [3]), 249 o/o; in the assay on L1210 mouse leukemia (setting [4]), 286 o/o. Moreover, the CURES in the assay with L1210 mouse leukemia (setting [1]) was 0/5; in the assay with L1210 mouse leukemia (setting [2]), 0/5; with L1210 mouse leukemia (setting [3]), 0/5; in the assay with L1210 mouse leukemia (setting [4]), 2/5*.

The values are drawn from patent publication EP0211354A2, “Nucleosides and their use as antineoplastic agents” (MERRELL DOW PHARMACEUTICALS INC., priority 1985, dated 1987).
